Reference: PMC8459971, “Evaluation of the hepatotoxicity of the novel GPR40 (FFAR1) agonist CPL207280 in the rat and monkey” (PLoS ONE, 2021)
“And” between values parts separate entries of the source, which are not always exact repeats. Equal values may be shown once.

Legend:
[1] = Metabolite profiling, human hepatocytes; format: in vitro ADME; details: human hepatocytes, 10 μM CPL207280, 60 min; ND = not detected
Description: (§1) Suspensions of cryopreserved human, rat, and monkey hepatocytes were pooled from a minimum of three individuals. All cryopreserved hepatocytes were purchased from a commercial supplier. […] The cell density was 0.5 ×10^6 viable cells/mL. The final DMSO concentration during the incubation was 0.25%. Control incubations were performed in lysed cells to reveal any non-enzymatic degradation. Two control compounds were identified in each species. Samples (50 μL) were removed from the incubation mixture at 0, 10, 20, 40, 60, and 120 min and added to methanol containing an internal standard (100 μL) to stop the reaction. The samples were centrifuged (4000 x g at 4°C for 30 min) and the supernatants at each time point were pooled for analysis by LC MS/MS using Cyprotex generic methods. Following hepatocyte stability assays, the samples were utilized for metabolite profiling. […] Metabolites were characterized using a mass spectrometer comprising Waters Xevo QT of G2-S, Acquity Binary Solvent Manager, Acquity Column Manager, and 2777 Autosampler.

[2] = Metabolite profiling, rat hepatocytes; format: in vitro ADME; details: 10 μM CPL207280, 120 min, ND = not detected
Description: as §1

MRP3 = MRP3 (Homo sapiens, UniProt O15438); assay: Vesicular transport inhibition assay, MRP3; details: MRP3; reference inhibitor 150 µM;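 also: membrane vesicles with radiolabelled probe substrate and 2 mM glutathione, 4 mM ATP versus AMP background control, vesicle-trapped substrate quantified by liquid scintillation counting after filtration; ATP 4 mM vs AMP background separates transporter uptake from diffusion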
MRP4 = target: T1, MRP4 (Homo sapiens, UniProt O15439); assay: Vesicular transport inhibition assay, MRP4; details: MRP4; reference inhibitor 150 µM;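 also: membrane vesicles with MRP4 incubated with compound and probe substrate plus 4 mM ATP, or AMP as passive-diffusion background, vesicular substrate uptake read by liquid scintillation counting; ATP 4 mM vs AMP background separates transporter uptake from diffusion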
T1 sequence (O15439 1-1325): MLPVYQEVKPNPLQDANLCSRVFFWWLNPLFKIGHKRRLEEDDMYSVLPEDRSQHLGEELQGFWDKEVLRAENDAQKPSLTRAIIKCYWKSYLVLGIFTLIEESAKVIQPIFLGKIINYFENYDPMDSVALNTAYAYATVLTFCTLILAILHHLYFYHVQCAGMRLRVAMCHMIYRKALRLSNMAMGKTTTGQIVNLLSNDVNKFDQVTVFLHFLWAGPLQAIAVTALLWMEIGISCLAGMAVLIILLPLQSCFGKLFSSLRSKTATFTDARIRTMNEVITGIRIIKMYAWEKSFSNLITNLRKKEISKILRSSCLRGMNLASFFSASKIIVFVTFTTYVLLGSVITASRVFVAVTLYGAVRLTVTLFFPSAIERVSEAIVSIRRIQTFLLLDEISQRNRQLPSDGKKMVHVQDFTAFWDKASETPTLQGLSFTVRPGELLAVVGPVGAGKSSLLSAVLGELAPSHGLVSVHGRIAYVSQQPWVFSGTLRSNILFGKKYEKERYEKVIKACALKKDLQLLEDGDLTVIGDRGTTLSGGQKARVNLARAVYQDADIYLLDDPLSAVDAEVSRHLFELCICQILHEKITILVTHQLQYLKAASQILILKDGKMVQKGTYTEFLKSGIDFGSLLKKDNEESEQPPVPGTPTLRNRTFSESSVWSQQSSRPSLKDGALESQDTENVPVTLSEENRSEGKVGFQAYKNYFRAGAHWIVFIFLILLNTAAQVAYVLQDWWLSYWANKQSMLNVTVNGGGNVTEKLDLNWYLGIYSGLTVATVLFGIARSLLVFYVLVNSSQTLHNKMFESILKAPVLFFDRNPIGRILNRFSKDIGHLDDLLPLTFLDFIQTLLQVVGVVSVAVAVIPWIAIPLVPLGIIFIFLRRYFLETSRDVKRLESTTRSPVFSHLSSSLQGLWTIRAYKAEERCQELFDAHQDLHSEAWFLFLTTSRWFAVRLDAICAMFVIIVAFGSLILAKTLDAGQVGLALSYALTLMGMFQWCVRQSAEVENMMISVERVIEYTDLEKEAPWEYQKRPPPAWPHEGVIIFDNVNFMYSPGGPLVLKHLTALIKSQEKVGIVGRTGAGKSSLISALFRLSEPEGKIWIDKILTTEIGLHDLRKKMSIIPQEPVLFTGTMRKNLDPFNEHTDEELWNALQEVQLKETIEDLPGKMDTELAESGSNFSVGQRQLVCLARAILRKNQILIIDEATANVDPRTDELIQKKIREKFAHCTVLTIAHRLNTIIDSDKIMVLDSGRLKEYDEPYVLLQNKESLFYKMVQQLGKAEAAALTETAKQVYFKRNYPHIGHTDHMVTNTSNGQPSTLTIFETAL

Sequence of MRP3 (O15438 whole entry, the tested form may be a part): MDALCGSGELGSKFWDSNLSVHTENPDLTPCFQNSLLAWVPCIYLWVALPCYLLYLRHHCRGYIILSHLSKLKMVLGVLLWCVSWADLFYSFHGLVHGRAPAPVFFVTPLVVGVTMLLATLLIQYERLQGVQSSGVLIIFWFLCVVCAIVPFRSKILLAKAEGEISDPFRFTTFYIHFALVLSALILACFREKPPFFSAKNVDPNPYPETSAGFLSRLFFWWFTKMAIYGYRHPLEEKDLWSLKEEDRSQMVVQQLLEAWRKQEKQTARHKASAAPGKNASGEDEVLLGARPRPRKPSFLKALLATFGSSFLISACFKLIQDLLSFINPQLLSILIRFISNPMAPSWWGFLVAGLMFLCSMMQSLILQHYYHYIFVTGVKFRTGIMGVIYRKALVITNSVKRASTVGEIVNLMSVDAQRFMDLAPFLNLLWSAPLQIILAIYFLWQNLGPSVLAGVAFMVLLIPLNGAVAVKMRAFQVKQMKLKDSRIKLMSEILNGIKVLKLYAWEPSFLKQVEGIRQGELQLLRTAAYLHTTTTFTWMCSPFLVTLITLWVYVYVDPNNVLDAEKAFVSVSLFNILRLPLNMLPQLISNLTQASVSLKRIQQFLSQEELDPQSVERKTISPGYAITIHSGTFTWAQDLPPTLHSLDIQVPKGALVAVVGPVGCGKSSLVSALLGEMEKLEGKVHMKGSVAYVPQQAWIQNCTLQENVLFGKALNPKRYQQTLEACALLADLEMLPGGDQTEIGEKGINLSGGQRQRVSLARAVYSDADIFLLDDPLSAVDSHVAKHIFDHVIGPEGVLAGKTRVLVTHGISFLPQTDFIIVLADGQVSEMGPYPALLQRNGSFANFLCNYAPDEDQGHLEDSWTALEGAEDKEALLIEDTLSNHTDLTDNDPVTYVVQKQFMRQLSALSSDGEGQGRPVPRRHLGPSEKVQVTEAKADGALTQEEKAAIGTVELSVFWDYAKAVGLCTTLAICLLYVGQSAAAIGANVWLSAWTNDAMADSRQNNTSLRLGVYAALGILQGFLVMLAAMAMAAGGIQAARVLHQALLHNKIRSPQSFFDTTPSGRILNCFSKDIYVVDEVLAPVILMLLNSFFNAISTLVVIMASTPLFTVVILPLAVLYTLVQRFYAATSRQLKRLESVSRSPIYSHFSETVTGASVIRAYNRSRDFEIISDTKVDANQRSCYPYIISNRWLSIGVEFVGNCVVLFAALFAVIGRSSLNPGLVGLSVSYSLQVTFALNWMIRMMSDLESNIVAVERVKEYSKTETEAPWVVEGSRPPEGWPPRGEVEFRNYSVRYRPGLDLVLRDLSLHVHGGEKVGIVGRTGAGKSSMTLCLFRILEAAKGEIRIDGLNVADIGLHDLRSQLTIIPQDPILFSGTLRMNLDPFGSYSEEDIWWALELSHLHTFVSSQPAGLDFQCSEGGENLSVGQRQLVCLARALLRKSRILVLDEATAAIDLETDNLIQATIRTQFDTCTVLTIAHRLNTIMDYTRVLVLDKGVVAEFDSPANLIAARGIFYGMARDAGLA

Row | human % of parent at 60 min [1] | rat % of parent at 120 min [2] | Accumulation (counts per minute; CPM) with AMP (MRP4) | Accumulation (counts per minute; CPM) with ATP (MRP4) | SMILES | Accumulation (counts per minute; CPM) with AMP (MRP3) | Accumulation (counts per minute; CPM) with ATP (MRP3)
1 | 1.44% | 2.88% |  |  | CC#CC(CC(=O)OC1OC(C(=O)O)C(O)C(O)C1O)c1ccc(OCC(C)=C(C)C)cc1 (stereo not drawn) [M15] |  | 
2 |  |  | 1227 CPM and 1197 CPM | 1356 CPM and 1304 CPM | CN(C)C(=O)CCSC(SCCC(=O)O)c1cccc(/C=C/c2ccc3ccc(Cl)cc3n2)c1 (stereo not drawn) [MK571] | 193 CPM and 200 CPM and 153 CPM and 106 CPM | 299 CPM and 302 CPM and 151 CPM and 183 CPM
